Reference: US20260217765A1, “NOVEL ANTIMICROBIAL PEPTIDE DESIGNED FROM DUCK-DERIVED ANTIMICROBIAL PEPTIDE ANDUSE THEREOF” (INDUSTRY-ACADEMIC COOPERATION FOUNDATION, CHOSUN UNIVERSITY, priority 2023, published 2026)
≈ marks a conversion by molar mass, not a printed value. Peptide text beside a SMILES is read from it.

Columns and labels:
[1] = test system: Acinetobacter baumannii KCTC 1017; assay type: cell-based; settings: KCTC 1017
Source text: (§1) To compare the antimicrobial activity of the peptides prepared in <Example 1>, the minimum inhibitory concentration (MIC), […] measured. Here, the minimal inhibitory concentration (MIC) refers to the lowest concentration of a substance that prevents visible bacterial growth.
(§2) Specifically, the bacterial strains listed in Table 2 below were obtained and cultured in media suitable for each strain until the mid-log phase. The cultures were then diluted to a concentration of 2×10^4 cells/100 μL and prepared in microtiter plates (Nunc, USA). Subsequently, serial 2-fold dilutions of the peptides prepared in Example 1 were prepared, and 10 μL of each dilution was added to the wells, and the plates were incubated at 37° C. for 18 hours. Absorbance at 600 nm was measured using a microtiter plate reader (Merck ELISA reader, Germany) to determine the MIC values for each bacterial strain. The parent peptide dCATH was used as a control.

[2] = test system: Listeria monocytogenes KCTC 3710; assay type: cell-based
Source text: as §1, §2

[3] = test system: Staphylococcus aureus ATCC 25923; assay type: cell-based; settings: ATCC 25923
Source text: as §1, §2

[4] = test system: Escherichia coli ATCC 25922; assay type: cell-based
Source text: as §1, §2

[5] = test system: Bacillus cereus KCTC 2508; assay type: cell-based
Source text: as §1, §2

[6] = test system: Pseudomonas aeruginosa ATCC 27853; assay type: cell-based
Source text: as §1, §2

[7] = test system: Acinetobacter baumannii_isolate 10 (antibiotic-resistant); assay type: cell-based, Acinetobacter baumannii; settings: isolate 10 (antibiotic-resistant)
Source text: as §1, §2

[8] = test system: Acinetobacter baumannii_isolate 7 (antibiotic-resistant); assay type: cell-based, Acinetobacter baumannii; settings: isolate 7 (antibiotic-resistant)
Source text: as §1, §2

[9] = test system: Acinetobacter baumannii_isolate16 (antibiotic-resistant); assay type: cell-based, Acinetobacter baumannii; settings: isolate16 (antibiotic-resistant)
Source text: as §1, §2

[10] = test system: Acinetobacter baumannii_isolate 12 (antibiotic-resistant); assay type: cell-based, Acinetobacter baumannii; settings: isolate 12 (antibiotic-resistant)
Source text: as §1, §2

[11] = test system: Acinetobacter baumannii_isolate 17 (antibiotic-resistant); assay type: cell-based, Acinetobacter baumannii; settings: isolate 17 (antibiotic-resistant)
Source text: as §1, §2

[12] = test system: Acinetobacter baumannii_isolate 3 (antibiotic-resistant); assay type: cell-based, Acinetobacter baumannii; settings: isolate 3 (antibiotic-resistant)
Source text: as §1, §2

[13] = test system: Acinetobacter baumannii_isolate 14 (antibiotic-resistant); assay type: cell-based, Acinetobacter baumannii; settings: isolate 14 (antibiotic-resistant)
Source text: as §1, §2

[14] = test system: Acinetobacter baumannii_isolate 1 (antibiotic-resistant); assay type: cell-based, Acinetobacter baumannii; settings: isolate 1 (antibiotic-resistant)
Source text: as §1, §2

[15] = test system: Acinetobacter baumannii_isolate 5 (antibiotic-resistant); assay type: cell-based, Acinetobacter baumannii; settings: isolate 5 (antibiotic-resistant)
Source text: as §1, §2

[16] = test system: Acinetobacter baumannii_isolate20 (antibiotic-resistant); assay type: cell-based, Acinetobacter baumannii; settings: isolate20 (antibiotic-resistant)
Source text: as §1, §2

[17] = test system: Acinetobacter baumannii_isolate21 (antibiotic-resistant); assay type: cell-based, Acinetobacter baumannii; settings: isolate21 (antibiotic-resistant)
Source text: as §1, §2

[18] = test system: Acinetobacter baumannii_isolate 8 (antibiotic-resistant); assay type: cell-based, Acinetobacter baumannii; settings: isolate 8 (antibiotic-resistant)
Source text: as §1, §2

[19] = test system: Acinetobacter baumannii_isolate 9 (antibiotic-resistant); assay type: cell-based, Acinetobacter baumannii; settings: isolate 9 (antibiotic-resistant)
Source text: as §1, §2

[20] = test system: Acinetobacter baumannii_isolate 19 (antibiotic-resistant); assay type: cell-based, Acinetobacter baumannii; settings: isolate 19 (antibiotic-resistant)
Source text: as §1, §2

[21] = test system: Acinetobacter baumannii_isolate 2 (antibiotic-resistant); assay type: cell-based, Acinetobacter baumannii; settings: isolate 2 (antibiotic-resistant)
Source text: as §1, §2

[22] = test system: Acinetobacter baumannii_isolate 6 (antibiotic-resistant); assay type: cell-based, Acinetobacter baumannii; settings: isolate 6 (antibiotic-resistant)
Source text: as §1, §2

[23] = test system: Acinetobacter baumannii_isolate 25 (antibiotic-resistant); assay type: cell-based, Acinetobacter baumannii; settings: isolate 25 (antibiotic-resistant)
Source text: as §1, §2

[24] = test system: Acinetobacter baumannii_isolate 4 (antibiotic-resistant); assay type: cell-based, Acinetobacter baumannii; settings: isolate 4 (antibiotic-resistant)
Source text: as §1, §2

[25] = test system: Acinetobacter baumannii_isolate15 (antibiotic-resistant); assay type: cell-based, Acinetobacter baumannii; settings: isolate15 (antibiotic-resistant)
Source text: as §1, §2

[26] = test system: Acinetobacter baumannii_isolate 26 (antibiotic-resistant); assay type: cell-based, Acinetobacter baumannii; settings: isolate 26 (antibiotic-resistant)
Source text: as §1, §2

[27] = test system: Acinetobacter baumannii_isolate 18 (antibiotic-resistant); assay type: cell-based, Acinetobacter baumannii; settings: isolate 18 (antibiotic-resistant)
Source text: as §1, §2

[28] = test system: Acinetobacter baumannii_isolate 13 (antibiotic-resistant); assay type: cell-based, Acinetobacter baumannii; settings: isolate 13 (antibiotic-resistant)
Source text: as §1, §2

[29] = test system: Acinetobacter baumannii_isolate 22 (antibiotic-resistant); assay type: cell-based, Acinetobacter baumannii; settings: isolate 22 (antibiotic-resistant)
Source text: as §1, §2

[30] = test system: Acinetobacter baumannii_isolate 24 (antibiotic-resistant); assay type: cell-based, Acinetobacter baumannii; settings: isolate 24 (antibiotic-resistant)
Source text: as §1, §2

[31] = test system: Acinetobacter baumannii_isolate 23 (antibiotic-resistant); assay type: cell-based, Acinetobacter baumannii; settings: isolate 23 (antibiotic-resistant)
Source text: as §1, §2

[32] = test system: Acinetobacter baumannii_isolate11 (antibiotic-resistant); assay type: cell-based, Acinetobacter baumannii; settings: isolate11 (antibiotic-resistant)
Source text: as §1, §2

MIC [1] | MIC [2] | MIC [3] | MIC [4] | MIC [5] | MIC [6] | MIC [7] | MIC [8] | MIC [9] | MIC [10] | MIC [11] | MIC [12] | MIC [13] | MIC [14] | MIC [15] | MIC [16] | MIC [17] | MIC [18] | MIC [19] | MIC [20] | SMILES | further results
2 µM (≈ 5.26 µg/mL) | 2 µM (≈ 5.26 µg/mL) | 2 µM (≈ 5.26 µg/mL) | 2 µM (≈ 5.26 µg/mL) | 1 µM (≈ 2.63 µg/mL) | 2 µM (≈ 5.26 µg/mL) | 2 µM (≈ 5.26 µg/mL) | 4 µM (≈ 10.5 µg/mL) | 2 µM (≈ 5.26 µg/mL) | 2 µM (≈ 5.26 µg/mL) | 2 µM (≈ 5.26 µg/mL) | 2 µM (≈ 5.26 µg/mL) | 2 µM (≈ 5.26 µg/mL) | 2 µM (≈ 5.26 µg/mL) | 2 µM (≈ 5.26 µg/mL) | 2 µM (≈ 5.26 µg/mL) | 2 µM (≈ 5.26 µg/mL) | 2 µM (≈ 5.26 µg/mL) | 2 µM (≈ 5.26 µg/mL) | 2 µM (≈ 5.26 µg/mL) | CC[C@H](C)[C@H](NC(=O)[C@H](C)NC(=O)[C@H](CC(C)C)NC(=O)[C@@H]1CCCN1C(=O)[C@@H](NC(=O)[C@H](CC(C)C)NC(=O)[C@H](CCC(N)=O)NC(=O)[C@H](Cc1c[nH]c2ccccc12)NC(=O)[C@H](Cc1ccccc1)NC(=O)[C@H](CCCNC(=N)N)NC(=O)[C@@H](N)CCCCN)C(C)C)C(=O)N[C@@H](CCCCN)C(=O)N[C@H](C(=O)N[C@@H](Cc1ccc(O)cc1)C(=O)N[C@@H](CCCNC(=N)N)C(=O)N[C@@H](C)C(=O)N[C@@H](Cc1c[nH]c2ccccc12)C(=O)N[C@@H](CCCCN)C(=O)N[C@@H](CCCNC(=N)N)C(=O)N[C@@H](CCCNC(=N)N)C(N)=O)[C@@H](C)CC [dCATH, reference compound] (H-KRFWQLVPLAIKIYRAWKRR-NH2; N-terminus assumed) | MIC [21]: 2 µM (≈ 5.26 µg/mL); MIC [22]: 4 µM (≈ 10.5 µg/mL); MIC [23]: 2 µM (≈ 5.26 µg/mL); MIC [24]: 2 µM (≈ 5.26 µg/mL); MIC [25]: 2 µM (≈ 5.26 µg/mL); MIC [26]: 2 µM (≈ 5.26 µg/mL); MIC [27]: 2 µM (≈ 5.26 µg/mL); MIC [28]: 2 µM (≈ 5.26 µg/mL); MIC [29]: 2 µM (≈ 5.26 µg/mL); MIC [30]: 4 µM (≈ 10.5 µg/mL); MIC [31]: 2 µM (≈ 5.26 µg/mL); MIC [32]: 2 µM (≈ 5.26 µg/mL)
2 µM (≈ 5.1 µg/mL) | 2 µM (≈ 5.1 µg/mL) | 2 µM (≈ 5.1 µg/mL) | 2 µM (≈ 5.1 µg/mL) | 2 µM (≈ 5.1 µg/mL) | 4 µM (≈ 10.2 µg/mL) | 2 µM (≈ 5.1 µg/mL) | 2 µM (≈ 5.1 µg/mL) | 2 µM (≈ 5.1 µg/mL) | 2 µM (≈ 5.1 µg/mL) | 1 µM (≈ 2.55 µg/mL) | 2 µM (≈ 5.1 µg/mL) | 2 µM (≈ 5.1 µg/mL) | 2 µM (≈ 5.1 µg/mL) | 2 µM (≈ 5.1 µg/mL) | 1 µM (≈ 2.55 µg/mL) | 2 µM (≈ 5.1 µg/mL) | 2 µM (≈ 5.1 µg/mL) | 2 µM (≈ 5.1 µg/mL) | 1 µM (≈ 2.55 µg/mL) | CC[C@H](C)[C@H](NC(=O)[C@H](C)NC(=O)[C@H](CC(C)C)NC(=O)[C@@H]1CCCN1C(=O)[C@@H](NC(=O)[C@H](CC(C)C)NC(=O)[C@H](CCC(N)=O)NC(=O)[C@H](Cc1c[nH]c2ccccc12)NC(=O)[C@H](C)NC(=O)[C@H](CCCNC(=N)N)NC(=O)[C@@H](N)CCCCN)C(C)C)C(=O)N[C@@H](CCCCN)C(=O)N[C@H](C(=O)N[C@@H](Cc1ccc(O)cc1)C(=O)N[C@@H](CCCNC(=N)N)C(=O)N[C@@H](C)C(=O)N[C@@H](Cc1c[nH]c2ccccc12)C(=O)N[C@@H](CCCCN)C(=O)N[C@@H](CCCNC(=N)N)C(=O)N[C@@H](CCCNC(=N)N)C(N)=O)[C@@H](C)CC [dCATH-A1] (H-KRAWQLVPLAIKIYRAWKRR-NH2; N-terminus assumed) | MIC [21]: 2 µM (≈ 5.1 µg/mL); MIC [22]: 2 µM (≈ 5.1 µg/mL); MIC [23]: 2 µM (≈ 5.1 µg/mL); MIC [24]: 2 µM (≈ 5.1 µg/mL); MIC [25]: 2 µM (≈ 5.1 µg/mL); MIC [26]: 2 µM (≈ 5.1 µg/mL); MIC [27]: 2 µM (≈ 5.1 µg/mL); MIC [28]: 2 µM (≈ 5.1 µg/mL); MIC [29]: 2 µM (≈ 5.1 µg/mL); MIC [30]: 2 µM (≈ 5.1 µg/mL); MIC [31]: 1 µM (≈ 2.55 µg/mL); MIC [32]: 2 µM (≈ 5.1 µg/mL)
1 µM (≈ 2.51 µg/mL) | 2 µM (≈ 5.03 µg/mL) | 1 µM (≈ 2.51 µg/mL) | 2 µM (≈ 5.03 µg/mL) | 1 µM (≈ 2.51 µg/mL) | 2 µM (≈ 5.03 µg/mL) | 2 µM (≈ 5.03 µg/mL) | 1 µM (≈ 2.51 µg/mL) | 1 µM (≈ 2.51 µg/mL) | 1 µM (≈ 2.51 µg/mL) | 1 µM (≈ 2.51 µg/mL) | 1 µM (≈ 2.51 µg/mL) | 1 µM (≈ 2.51 µg/mL) | 2 µM (≈ 5.03 µg/mL) | 1 µM (≈ 2.51 µg/mL) | 1 µM (≈ 2.51 µg/mL) | 1 µM (≈ 2.51 µg/mL) | 1 µM (≈ 2.51 µg/mL) | 2 µM (≈ 5.03 µg/mL) | 1 µM (≈ 2.51 µg/mL) | CC[C@H](C)[C@H](NC(=O)[C@H](C)NC(=O)[C@H](CC(C)C)NC(=O)[C@@H]1CCCN1C(=O)[C@@H](NC(=O)[C@H](CC(C)C)NC(=O)[C@H](CCC(N)=O)NC(=O)[C@H](C)NC(=O)[C@H](Cc1ccccc1)NC(=O)[C@H](CCCNC(=N)N)NC(=O)[C@@H](N)CCCCN)C(C)C)C(=O)N[C@@H](CCCCN)C(=O)N[C@H](C(=O)N[C@@H](Cc1ccc(O)cc1)C(=O)N[C@@H](CCCNC(=N)N)C(=O)N[C@@H](C)C(=O)N[C@@H](Cc1c[nH]c2ccccc12)C(=O)N[C@@H](CCCCN)C(=O)N[C@@H](CCCNC(=N)N)C(=O)N[C@@H](CCCNC(=N)N)C(N)=O)[C@@H](C)CC [dCATH-A2] (H-KRFAQLVPLAIKIYRAWKRR-NH2; N-terminus assumed) | MIC [21]: 1 µM (≈ 2.51 µg/mL); MIC [22]: 2 µM (≈ 5.03 µg/mL); MIC [23]: 1 µM (≈ 2.51 µg/mL); MIC [24]: 2 µM (≈ 5.03 µg/mL); MIC [25]: 1 µM (≈ 2.51 µg/mL); MIC [26]: 2 µM (≈ 5.03 µg/mL); MIC [27]: 1 µM (≈ 2.51 µg/mL); MIC [28]: 1 µM (≈ 2.51 µg/mL); MIC [29]: 1 µM (≈ 2.51 µg/mL); MIC [30]: 1 µM (≈ 2.51 µg/mL); MIC [31]: 1 µM (≈ 2.51 µg/mL); MIC [32]: 1 µM (≈ 2.51 µg/mL)
